Publication PMC7073229, “Novel Quinoline Compounds Active in Cancer Cells through Coupled DNA Methyltransferase Inhibition and Degradation” (Cancers, 2020)
Where two headings read alike, the source gives them in different places.

Experiments:
human DNMT1 (hDNMT1) = molecular target: T1, human DNMT1 (hDNMT1) (Homo sapiens, UniProt P26358); assay: DNMT1 assay ([methyl-3H]SAM, Flashplate); format: biochemical; settings: mean of at least two independent experiments; read-out: Enzyme Inhibition (EC50 ± SD) hDNMT1
T1 construct: His; made in house
Protocol: His-DNMT1 (182 kDa, human) was cloned, expressed, and purified as described by Lee et al.. The DNMT1 assay was performed according to Gros et al.. […] The reaction was incubated 2 h at 37 °C, then 8 µL of the solution are transferred into a streptavidin 96-well scintillant coated Flashplate containing 190 µL of 20 mM SAH in 50 mM Tris–HCl (pH 7.4). The Flashplate is agitated for 1 h at room temperature and washed. The plate is read with TopCount (PerkinElmer). In this assay, the negative and positive controls were defined as wells without enzyme and wells with only DMSO, respectively.

[1] = molecular target: T2, C-terminal catalytic domain of human DNMT3A (hDNMT3A) (Homo sapiens, UniProt Q9Y6K1); assay: DNMT3A restriction-based fluorescence assay; format: biochemical; settings: mean of at least two independent experiments; read-out: Enzyme Inhibition (EC50 ± SD) hDNMT3A
T2 construct: the C-terminal catalytic domain of human DNMT3A (hDNMT3A)
Protocol: DNMT3A enzyme inhibition was adapted from the restriction-based fluorescence assay protocol described in Ceccaldi et al.. Briefly, a biotin-labelled oligonucleotide at the 5’ end is hybridized to his complementary strand labelled at the 3’ end with 6-carboxyfluorescein. The DNA duplex containing only one single CpG site overlapping with a restriction site of a methylation sensitive restriction enzyme is transferred in the wells coated with avidin. The methylation reaction is performed by adding human C-terminal DNMT3A at the final concentration of 4 ng/µL in a total volume of 50 µL in the presence of the inhibitors at various concentrations and the co-substrate SAM at the final concentration of 20 µM. The plate was incubated for 1 h at 37 °C, washed, and added with the methylation sensitive restriction enzyme HpyCH4IV, incubated for 1 h further at 37 °C, washed and the fluorescence measured with a PerkinElmer Envision Multilabel Plate Reader. The data are expressed as percentage of inhibition vs. log concentration (M). Data are normalized referring to the “restriction control” (wells coated with labelled duplex not treated nor exposed to DNMT3A, but only cleaved by HpyCH4IV) as the maximum of inhibition (100%) and to the “DMSO control” (wells coated with labelled duplex but treated just with 0.1% DMSO exposed to DNMT3A and then to HpyCH4IV) as the minimum of inhibition (0%; total methylation).

HL60 APL cells [2] = assay: Antiproliferative activity, MTT; format: cell-based; settings: Homo sapiens, HL-60, 48 h treatment, read-out: Antiproliferative Activity (IC50 ± SD) HL60
Protocol: (§1) U937 histiocytic lymphoma, HL60 acute promyelocytic leukemia, H1299 lung adenocarcinoma, MCF7 breast carcinoma, HT1080 fibrosarcoma, M14 melanoma, HeLa epithelial cervix carcinoma and peripheral blood B lymphocyte AHH1 human cell lines were obtained from the Deutsche Sammlung für Mikroorganismen and Zellkulturen (DSZM, Braunschweig, Germany) and were maintained in RPMI 1640 medium contained 10% fetal bovine serum (FBS), 2 mM L-glutamine, and antibiotics in a humidified atmosphere with 5% CO2 at 37 °C. HCT116 (ATCC, VA, USA) cells were propagated in Dulbecco’s modified Eagle medium (DMEM) (Euroclone, Milan, Italy) with 10% fetal bovine serum (FBS; Euroclone, Milan, Italy), 2 mM L-glutamine (Euroclone, Milan, Italy), and antibiotics (100 U/mL penicillin, 100 µg/mL streptomycin) (Euroclone, Milan, Italy). The experiments were performed with early (3–20) cell passages. Cell lines were treated with compounds at the indicated concentrations in the exponential growth phase.
(§2) Then, increasing concentrations of different compounds (ranging from 0.01 to 100 μM) were added, and cell proliferation was evaluated by a MTT assay after 48 h. Cells exposed to DMSO were used as control. The effect of compounds was evaluated using the CellTiter-Glo luminescent cell viability assay (Promega, Madison, WI, USA) according to the manufacturer’s instructions. For HCT116, 5 × 10^4 cells/well were plated in 24-well plate and treated, in duplicate, with compounds at several concentrations for 24 and 48 h of induction. After treatments, MTT solution was added for 3 h at 0.5 mg/mL, the obtained crystals were dissolved in DMSO (Sigma-Aldrich, Milan, Italy), and the absorbance was read at a wavelength of 570 nm with reader TECAN M-200. All the experiments were performed in triplicate and repeated at least three times.
(§3) IC50 values of compounds against cellular viability were determined by using nonlinear regression fitting curves with GraphPad Prism 8. The t-test used for statistical analyses was performed with GraphPad Prism 8. All the tests were one-tailed and a p-value < 0.05 was considered statistically significant.

U937 AML cells [3] = assay: Antiproliferative activity, MTT; format: cell-based; settings: Homo sapiens, U-937, 48 h treatment, read-out: Antiproliferative Activity (IC50 ± SD) U937
Protocol: as §1, §2, §3

[4] = test system: H1299 human non-small cell lung carcinoma; assay: Antiproliferative activity, MTT; format: cell-based; settings: 48 h treatment, read-out: Antiproliferative Activity (IC50 ± SD) H1299
Protocol: as §1, §2, §3

[5] = test system: HCT116 human colorectal carcinoma; assay: Antiproliferative activity, MTT; format: cell-based; settings: HCT-116, 48 h treatment, read-out: Antiproliferative Activity (IC50 ± SD) HCT116
Protocol: as §1, §2, §3

[6] = test system: HT1080 human fibrosarcoma; assay: Antiproliferative activity, MTT; format: cell-based; settings: HT-1080, 48 h treatment, read-out: Antiproliferative Activity (IC50 ± SD) HT1080
Protocol: as §1, §2, §3

[7] = test system: HeLa epithelial cervix carcinoma; assay: Antiproliferative activity, MTT; format: cell-based; settings: Homo sapiens, 48 h treatment, read-out: Antiproliferative Activity (IC50 ± SD) HeLa
Protocol: as §1, §2, §3

M14 human melanoma = assay: Antiproliferative activity, MTT; format: cell-based; settings: 48 h treatment, read-out: Antiproliferative Activity (IC50 ± SD) M14
Protocol: as §1, §2, §3

F21T G-quadruplex DNA = assay: FRET melting assay, G-quadruplex DNA; format: binding
Protocol: (§4) Experimental procedure for Fluorescence Resonance Energy Transfer (FRET) melting assay Oligonucleotides labeled at 5’ with FAM (6-carboxyfluorescein) as donor fluorophore and TAMRA (6 - carboxytetramethylrhodamine) at 3’ as the acceptor fluorophore were purchased from STAB VIDA (Portugal). Each oligonucleotide was initial ly diluted to 100 µM in water (Molecular Biology Reagent, Sigma). Stock solutions of 20 µM and subsequent dilutions were made with FRET buffer (60 mM KCl, potassium cacodylate, pH 7.4). Tagged oligonucleotides at 0.4 µM were annealed by heating at 90 -95 °C for 10 min, followed by slow cooling to room temperature. St ock solutions of compounds (1 mM) were prepared in 10% DMSO. Subsequent dilutions were performed using FRET buffer. Annealed DNA (50 µL) and test compound solutions (50 µL) were distributed across 96-well RT-PCR plates (PCR-96-FLT-C, Axygen, Inc). Fluorescence readings (performed in a 7300 RT -PCR equipment from Applied Biosystems) were taken at intervals of 0.5 °C in the range 31 –95 °C, with the temperature being maintained for 30 seconds prior to each reading. Experiments were performed in triplicate. Fina l analysis of the data was carried out with GraphPad Prism v.5.0 (GraphPad Software Inc., La Jolla, CA, USA).
(§5) The advanced curve-fitting function in GraphPad Prism (nonlinear regression fit) was used for calculation of ΔTm values. Only results with fitting r2 values > 0.75 (std error < 0.25) were considered.
(§6) Table S2. Synthetic oligonucleotides used in FRET experiments.

KRAS21R G-quadruplex DNA = assay: FRET melting assay, G-quadruplex DNA; format: binding
Protocol: as §4, §5, §6

U937 AML cells [8] = settings: MTT, 48 h, read-out: Antiproliferative Activity (IC50 ± SD) U937, cited from earlier work
HL60 APL cells [9] = settings: MTT, 48 h, read-out: Antiproliferative Activity (IC50 ± SD) HL60, cited from earlier work
[10] = test system: methylated UCHL1 promoter (pUCHL1) in HCT116 cells; assay: UCHL1 promoter demethylation assay (EGFP induction, FACS); format: cell-based, human; settings: HCT116, 0.5 µM, five days
Protocol: The assay was performed as described in [29]. Briefly, human colon cancer HCT116 (ATCC, VA, USA) cells were grown in Dulbecco’s Modified Eagle Medium (DMEM; Euroclone, Milan, Italy) supplemented with 10% fetal bovine serum (FBS; Euroclone, Milan, Italy), 2 mM L-glutamine (Euroclone), and antibiotics (100 U/mL penicillin, 100 µg/mL streptomycin) (Euroclone). The pUMLIEP vector (composed by MetLuc-IRES-EGFP construct upon the control of the ubiquitin carboxyl-terminal hydrolase L1 (UCHL1)) was linearized and methylated by with ClaI and SssI-methylase enzymes (New England Biolabs, Milan, Italy). After, methylated pUMLIEP was transfected into HCT116 cells following the protocol described in [30]. […] On day 5, cells were observed under by a fluorescent microscope (Cytation 5 Cell Imaging Multi-Mode Reader (BioTeK Milan, Italy) and BD Accuri flow cytometers. Nuclei were counterstained with DAPI (10 µg/mL, Invitrogen, Tournai, Belgium).

T2 sequence (Q9Y6K1 634-912 limits assumed): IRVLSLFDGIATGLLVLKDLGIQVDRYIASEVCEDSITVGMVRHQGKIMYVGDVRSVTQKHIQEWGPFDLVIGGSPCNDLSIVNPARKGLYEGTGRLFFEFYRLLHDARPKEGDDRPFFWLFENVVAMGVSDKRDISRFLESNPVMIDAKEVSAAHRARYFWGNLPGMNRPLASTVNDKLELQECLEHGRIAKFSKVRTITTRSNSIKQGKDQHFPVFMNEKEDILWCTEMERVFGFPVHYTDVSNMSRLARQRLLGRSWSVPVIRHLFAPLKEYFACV
T1 sequence (P26358 whole entry): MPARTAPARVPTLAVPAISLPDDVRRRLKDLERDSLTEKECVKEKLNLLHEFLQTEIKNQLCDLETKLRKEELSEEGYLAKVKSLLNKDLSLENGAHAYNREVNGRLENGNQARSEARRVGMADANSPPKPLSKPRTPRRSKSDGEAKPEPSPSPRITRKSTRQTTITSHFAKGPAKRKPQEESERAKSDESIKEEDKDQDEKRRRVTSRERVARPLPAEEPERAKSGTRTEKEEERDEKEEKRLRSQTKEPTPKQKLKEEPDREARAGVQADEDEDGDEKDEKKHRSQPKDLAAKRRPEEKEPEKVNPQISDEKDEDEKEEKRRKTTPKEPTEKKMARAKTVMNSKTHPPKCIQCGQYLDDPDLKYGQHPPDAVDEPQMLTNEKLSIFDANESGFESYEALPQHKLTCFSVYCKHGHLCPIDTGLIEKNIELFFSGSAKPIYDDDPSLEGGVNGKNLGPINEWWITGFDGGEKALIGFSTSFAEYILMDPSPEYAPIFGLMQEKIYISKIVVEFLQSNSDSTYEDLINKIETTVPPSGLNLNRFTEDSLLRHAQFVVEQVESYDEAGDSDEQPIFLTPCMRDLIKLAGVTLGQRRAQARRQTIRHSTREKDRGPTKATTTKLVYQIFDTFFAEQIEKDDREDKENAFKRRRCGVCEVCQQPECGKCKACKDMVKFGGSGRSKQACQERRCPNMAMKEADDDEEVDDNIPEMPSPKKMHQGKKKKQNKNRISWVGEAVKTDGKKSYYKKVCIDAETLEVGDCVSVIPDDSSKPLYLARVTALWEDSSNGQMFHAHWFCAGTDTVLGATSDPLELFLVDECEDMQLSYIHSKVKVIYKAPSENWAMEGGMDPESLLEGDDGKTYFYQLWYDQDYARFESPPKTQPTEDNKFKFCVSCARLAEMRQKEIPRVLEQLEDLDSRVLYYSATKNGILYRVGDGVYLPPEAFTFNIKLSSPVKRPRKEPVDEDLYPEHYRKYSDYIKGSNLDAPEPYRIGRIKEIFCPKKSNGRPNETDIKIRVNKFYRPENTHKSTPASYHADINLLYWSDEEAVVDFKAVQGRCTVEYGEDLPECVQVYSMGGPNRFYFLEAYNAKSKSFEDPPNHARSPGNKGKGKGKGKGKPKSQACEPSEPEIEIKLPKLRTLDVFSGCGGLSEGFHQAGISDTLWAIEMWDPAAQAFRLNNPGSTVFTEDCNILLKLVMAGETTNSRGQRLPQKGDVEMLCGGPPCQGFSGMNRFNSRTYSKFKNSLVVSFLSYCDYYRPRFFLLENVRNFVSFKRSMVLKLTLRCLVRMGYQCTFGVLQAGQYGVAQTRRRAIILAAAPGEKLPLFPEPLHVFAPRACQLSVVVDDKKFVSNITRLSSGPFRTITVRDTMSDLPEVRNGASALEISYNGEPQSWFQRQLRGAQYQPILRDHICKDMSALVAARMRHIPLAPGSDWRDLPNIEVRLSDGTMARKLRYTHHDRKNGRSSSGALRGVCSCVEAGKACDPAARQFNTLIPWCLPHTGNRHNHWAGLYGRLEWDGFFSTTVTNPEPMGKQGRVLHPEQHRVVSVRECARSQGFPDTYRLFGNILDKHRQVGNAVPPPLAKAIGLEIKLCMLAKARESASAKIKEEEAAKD

SMILES	EC50 (human DNMT1 (hDNMT1))	EC50 [1]	IC50 (HL60 APL cells [2])	IC50 (U937 AML cells [3])	IC50 [4]	IC50 ([4]; Homo sapiens, NCI-H1299, 48 h)	IC50 [5]	IC50 [6]	IC50 [7]	IC50 (M14 human melanoma)	F21T ∆Tm (F21T G-quadruplex DNA; 5 µM)	F21T ∆Tm (F21T G-quadruplex DNA; 10 µM)	KRAS ∆Tm (KRAS21R G-quadruplex DNA; 5 µM)	KRAS ∆Tm (KRAS21R G-quadruplex DNA; 10 µM)	IC50 (U937 AML cells [8]; reference compounds)	IC50 (HL60 APL cells [9]; reference compounds)	IC50 (U937 AML cells [8]; reference compound)	IC50 (HL60 APL cells [9]; reference compound)	pUCHL1 demethylation, EGFP-positive cells (FACS R1) [10]
Cc1cc(Nc2cccc(CNC(=O)c3cccc(Nc4ccnc5ccccc45)c3)c2)nc(N)n1 [Compound 1c]	35 ± 7 µM	31 ± 6 µM	36 ± 4 µM	25.8 ± 3.2 µM															
O=C(Nc1ccc(Nc2ccnc3ccccc23)cc1)c1ccc(Nc2ccnc3ccccc23)cc1 [Compound 2, reference compound]					11.4 ± 1.8 µM	11 µM	13.3 ± 2.1 µM	17 ± 2.1 µM	52 ± 5.7 µM	80 ± 9.1 µM	0.6 ºC	6.2 ºC	1.0 ºC	9.6 ºC	6.6 ± 0.9 µM	65 ± 8.1 µM			
Cc1cc(Nc2ccc(NC(=O)c3ccc(Nc4cc(C)nc(N)n4)cc3)cc2)nc(N)n1 [Compound 3]															60 ± 8.2 µM	119 ± 12.9 µM			
O=C(Nc1ccc(NC(=O)c2ccc(Nc3ccnc4ccccc34)cc2)cc1)OCc1ccccc1 [Compound 4, reference compound]						5.9 ± 0.8 µM	8.6 ± 1 µM	1.7 ± 0.2 µM	3.2 ± 0.5 µM	2.9 ± 0.4 µM	2.7 ºC	6.9 ºC	1 ºC	10.4 ºC			2.3 ± 0.4 µM	8.3 ± 1 µM	
Cc1cc(Nc2ccc(NC(=O)c3ccc(Nc4ccnc5ccccc45)cc3)cc2)nc(N)n1 [SGI-1027, reference compound]											1.9 ºC	7.2 ºC	6.7 ºC	8.7 ºC	0.7 ± 0.08 µM	0.7 ± 0.16 µM			32.9%
